This note sets out measurements from paper PMC7710018, “Restoration of motor learning in a mouse model of Rett syndrome following long-term treatment with a novel small-molecule activator of TrkB” (Disease Models & Mechanisms, 2020).

One assay has as its system 3T3-TrkB cells. As to the kind of experiment: NIH-3T3 cell survival (ViaLight). The class given is cell-based, mouse. The note with it: 72-96 h. The procedure:
Fig. 2. PTX-BD4-3 promotes cell survival preferentially through TrkB. (A-D) Neurotrophin receptor-expressing NIH-3T3 cells were incubated in culture medium (CM) alone or in medium plus either the indicated neurotrophins (BDNF, NGF, NT-3) or PTX-BD4-3 or its parent compound LM22A-4 for 72-96 h, after which survival was measured using the ViaLight assay. […] Scale bar: 10 μm. (B) Survival dose-response curves for PTX-BD4-3 and LM22A-4 in 3T3-TrkB cells. ^§P≤0.001 compared to CM alone. (C) Representative images of 3T3-TrkA, 3T3-TrkC and 3T3-p75 cells grown in the presence of CM alone, CM+neurotrophin or CM+PTX-BD4-3. Scale bar: 10 μm. NGF, NT-3 and BDNF served as positive controls for 3T3-TrkA, 3T3-TrkC and 3T3-p75 cells, respectively. (D) PTX-BD4-3 (1000 nM) had no effect on survival of 3T3-TrkA, 3T3-TrkC or 3T3-p75 cells compared to medium alone. *P≤0.05, ***P≤0.001 compared to CM alone. For each determination in B and D, n=10-32 wells derived from four to five independent experiments. Statistical significance was determined by one-way ANOVA with Dunnett's post hoc multiple comparison test. (E,F) […] protein was extracted from human cementoblast-like cell (HCEM) cultures treated with either culture medium alone, BDNF, LM22A-4 or PTX-BD4-3, immunoprecipitated with anti-TrkB antibody and then probed sequentially on western blots with anti-Shc and anti-TrkB antibody. The ratio of Shc to TrkB in treated cultures was normalized and compared to control (CM alone) using Kruskal-Wallis ANOVA followed by Dunn's multiple comparisons test (*P≤0.05, ^§P≤0.001). n=13 independent experiments, and each protein sample was run on duplicate western blots and the normalized values averaged. RLUs, relative light units.
Mouse NIH-3T3 cells expressing TrkA (NIH-3T3-TrkA) were provided by Dr William Mobley (University of California at San Diego, San Diego, CA, USA), and NIH-3T3 cells expressing TrkB (NIH-3T3-TrkB) or TrkC (NIH-3T3-TrkC) were provided by Dr David Kaplan (University of Toronto, Toronto, ON, Canada). Cells were propagated in Dulbecco's modified Eagle medium (DMEM) supplemented with 10% fetal bovine serum (FBS; Invitrogen) and 200-400 µg/ml Geneticin. Cells were seeded into 24-well plates (30,000 cells/well) and cultured in medium consisting of 50% PBS and 50% DMEM without supplements. Following exposure to BDNF (20 ng/ml, 0.7 nM) or 10-1000 nM LM22A-4 or PTX-BD4-3 for 72-96 h, cells were suspended in 50 µl lysis buffer, transferred to white, opaque 96-well culture plates and survival was measured using the ViaLight Assay (Lonza Group, Rockland, ME, USA).

Assay [1] deals with E16 mouse hippocampal neurons. The experiment in a line: Hippocampal neuron survival (ViaLight assay and Tuj1-positive cell counts). The class given is cell-based. The note with it: for neurotrophic activity in the presence of function-blocking anti-TrkB^ECD antibody: compounds 1000 nM, BDNF 20 ng/ml, vs control antibody. From the text: To further confirm that PTX-BD4-3 promotes biologically relevant activity through TrkB, we examined the effect of PTX-BD4-3 on survival of cultured hippocampal neurons, using two different methods (Fig. 3A-C). […] It would be expected that although there is a correlation between survival status and mitochondrial metabolic status, one could have some degree of variability in metabolic function for a given level of cell survival. […] Because the plateau effect of PTX-BD4-3 on survival was observed between 500 nM and 1000 nM, we chose 1000 nM as a standard concentration for subsequent mechanistic studies.
Fig. 3. […] (A) Fluorescence photomicrographs (original magnification, ×40) of Tuj1-immunostained E16 mouse hippocampal neuronal cultures treated with culture medium (CM) alone, BDNF, LM22A-4 or PTX-BD4-3 for 48 h. Scale bar: 10 μm. (B) Neuron survival dose-response curves for LM22A-4 and PTX-BD4-3 were generated using the ViaLight assay; data were normalized to survival achieved with 20 ng/ml (∼0.7 nM) BDNF and compared with wells receiving culture medium medium (CM) alone. n=10-32 wells per group derived from four to five independent experiments. (C) Survival analysis of hippocampal neurons treated with either 20 ng/ml BDNF, 500 nM or 1000 nM LM22A-4 or 500 nM or 1000 nM PTX-BD4-3 for 48 h. Tuj1-positive cells counts were normalized to the survival achieved with BDNF and compared with wells treated with […]. n=32-40 wells per group derived from six independent experiments. Statistical significance in B and C was determined by one-way ANOVA with Dunnett's post hoc multiple comparison tests. *P≤0.05, ^§P≤0.001 compared to control (CM). (D) Survival of hippocampal neurons treated with CM, 20ng/ml BDNF (B), 1000 nM LM22A-4 or 1000 nM PTX-BD4-3 with or without anti-TrkB antibody (Bab) or non-immune serum (non). n=37-42 wells per group derived from five independent experiments. *P≤0.05, **P≤0.01, ***P≤0.001 (non vs Bab), Mann-Whitney test; *P≤0.05, ^ψP≤0.01, ^§P≤0.001 (compared to CM), one-way ANOVA with Dunnett's post hoc multiple comparison test.
Hippocampal neuron cultures were prepared from E16 CF1 mouse fetuses as described previously ([Yang et al., 2006]). Under the low-density conditions used here, neuronal survival is dependent, in part, on addition of exogenous neurotrophins ([Yang et al., 2008]; [Walter et al., 2011]). LM22A-4 and PTX-BD4-3 were dissolved in water at a stock concentration of 10 mM prior to dilution (1:10,000) in culture medium. Cell survival following a 48-h exposure to BDNF, LM22A-4 or PTX-BD4-3 was quantified by either counting β-tubulin III-positive cell bodies ([Massa et al., 2006]; [Walter et al., 2011]) or by the ViaLight Assay described above.

SMILES strings stand for the structures.

Regarding `COCCN(C)C(=O)c1cc(C(=O)N(C)CCOC)cc(C(=O)N(C)CCOC)c1` [PTX-BD4-3, benzene-1,3,5-tricarboxylic acid tris-[(2-methoxy-ethyl)-methyl-amide]], the “survival of 3T3-TrkB cells” value in the assay on 3T3-TrkB cells (1000 nM, representative images) is “support the survival”; in the assay with 3T3-TrkB cells (serum-free medium, ViaLight, compounds 10-1000 nM dose-response, BDNF 20 ng/ml), “promoted survival”. The “maximum levels of neurotrophic activity” value in assay [1] (48 h, ViaLight and Tuj1 counts, normalized to 20 ng/ml BDNF) is 80-100 % of that of BDNF. Moreover, the EC50 in assay [1] (Mus musculus, Hippocampal neuron, 48 h, ViaLight and Tuj1 counts, read-out: half-maximal effective concentration (EC50), neurotrophic activity) lay within 0.3 to 0.5 µM. Besides, the “neurotrophic activity in the presence of function-blocking anti-TrkB^ECD antibody” value in assay [1] is “reduction”.

`O=C(NCCO)c1cc(C(=O)NCCO)cc(C(=O)NCCO)c1` [LM22A-4, N,N′,N′′-tris(2-hydroxyethyl)-1,3,5-benzenetricarboxamide, reference compound]: the “survival of 3T3-TrkB cells” value in the assay on 3T3-TrkB cells (1000 nM, representative images) is recorded as “support the survival”. In assay [1], the “neurotrophic activity in the presence of function-blocking anti-TrkB^ECD antibody” value is listed as “reduction”.
